# Test system: hepatocellular carcinoma cell line Hep3B
# Test: Growth inhibition of Hep3B cells, 48 hr treatment, Hoechst 33342 nucleus count (GE InCell 2200)
# Type: cell-based
# Settings: Homo sapiens, Table 1, ratio of number of tumor cells treated with 10 μM compound to non-treated cells
# Experimental: The potency of selected compounds was defined by the growth inhibition ability to the hepatocellular carcinoma cell line Hep3B. The Hep3B cells were treated with selected compounds for 48 hr under 37° C., 5% CO2, and 95% relative humidity.
# The number of treated cells was determined by GE InCell 2200 system, and treated cells were stained with Hoechst 33342 which can reveal the remained nucleus in culture plate. The proportion of survival cells then were calculated with the ratio of treated/non-treated cells. The growth inhibition/cytotoxic effect of selected compounds were evaluated by the following protocol of NCI-60 screening platform. The human tumor cell lines are plating on a 96 well plate in a fixed density 24 hr prior compound treatment. Compounds with multiple concentrations are then added into each well for further 48 hr incubation. Cell viability is assessed by MTS method and the potency of compound is represented by GI50 and LC50 calculated by MTS result.
# Herein, the “Ratio in 10 μM (%)” in the following Tables 1-6 refers to the ratio of the number of tumor cells treated with 10 μM of selected compounds to the number of non-treated tumer cells.
row,Compound,viability at 10 µM
1,"CCOc1ccc(-c2nnc(N(C)C(=O)Cc3ccc4nc(N)sc4c3)s2)c(OCC)c1 [Compound 1-36, 2-(2-aminobenzo[d]thiazol-6-yl)-N-(5-(2,4-diethoxyphenyl)-1,3,4-thiadiazol-2-yl)-N-methylacetamide]",53%
2,"CCOc1cc(OCC)c(-c2nnc(NC(=O)Cc3ccc4nc(N)sc4c3)s2)c(OCC)c1 [Compound 1-24, 2-(2-aminobenzo[d]thiazol-6-yl)-N-(5-(2,4,6-triethoxyphenyl)-1,3,4-thiadiazol-2-yl)acetamide]",88%

# Same assay, conditions: Homo sapiens, Table 3, ratio of number of tumor cells treated with 10 μM compound to non-treated cells
row,Compound,viability at 10 µM
1,"COc1ccc(-c2sc(NC(=O)Cc3ccc4nc(N)sc4c3)nc2-c2ccc(C)cc2)cc1OC [Compound 3-5, 2-(2-aminobenzo[d]thiazol-6-yl)-N-(5-(3,4-dimethoxyphenyl)-4-(p-tolyl)thiazol-2-yl)acetamide]",85%

# Same assay, conditions: Homo sapiens, Table 4, ratio of number of tumor cells treated with 10 μM compound to non-treated cells
row,Compound,viability at 10 µM
1,"CCOc1ccc(-c2cnc(NC(=O)Cc3ccc4nc(N)sc4c3)[nH]2)c(OCC)c1 [Compound 4-4, 2-(2-aminobenzo[d]thiazol-6-yl)-N-(5-(2,4-diethoxyphenyl)-1H-imidazol-2-yl)acetamide]",40%

# Same assay, conditions: Homo sapiens, Table 5, ratio of number of tumor cells treated with 10 μM compound to non-treated cells
row,Compound,viability at 10 µM
1,"CCOc1ccccc1-c1nc(NC(=O)c2ccc([N+](=O)[O-])s2)sc1Oc1ccccc1 [Compound 5-5, N-(4-(2-ethoxyphenyl)-5-phenoxythiazol-2-yl)-5-nitrothiophene-2-carboxamide]",47%
2,"O=C(Nc1nc(-c2ccc(F)cc2)c(Oc2ccc(OC(F)(F)F)cc2)s1)c1ccc([N+](=O)[O-])s1 [Compound 5-33, N-(4-(4-fluorophenyl)-5-(4-(trifluoromethoxy)phenoxy)thiazol-2-yl)-5-nitrothiophene-2-carboxamide]",40%
3,"O=C(Nc1nc(-c2ccc(Br)s2)c(Oc2ccccc2)s1)c1ccc([N+](=O)[O-])s1 [Compound 5-42, N-(4-(5-bromothiophen-2-yl)-5-phenoxythiazol-2-yl)-5-nitrothiophene-2-carboxamide]",55%
4,"CCOc1ccc(-c2nc(NC(=O)c3ccc([N+](=O)[O-])s3)sc2Oc2ccccc2F)cc1 [Compound 5-57, N-(4-(4-ethoxyphenyl)-5-(2-fluorophenoxy)thiazol-2-yl)-5-nitrothiophene-2-carboxamide]",43%
5,"CCc1ccc(-c2nc(NC(=O)c3ccc([N+](=O)[O-])s3)sc2Oc2ccc(C(C)(C)C)cc2)cc1 [Compound 5-102, N-(5-(4-(tert-butyl)phenoxy)-4-(4-ethylphenyl)thiazol-2-yl)-5-nitrothiophene-2-carboxamide]",40%
6,"CCCCOc1ccc(-c2nc(NC(=O)c3ccc([N+](=O)[O-])s3)sc2Oc2ccc(CCC)cc2)cc1 [Compound 5-93, N-(4-(4-butoxyphenyl)-5-(4-propylphenoxy)thiazol-2-yl)-5-nitrothiophene-2-carboxamide]",45%
7,"CNC(=O)c1ccc(-c2nc(NC(=O)c3ccc([N+](=O)[O-])s3)sc2Oc2ccc(F)cc2)cc1 [Compound 5-35, N-(5-(4-fluorophenoxy)-4-(4-(methylcarbamoyl)phenyl)thiazol-2-yl)-5-nitrothiophene-2-carboxamide]",68%
8,"CCCOc1ccc(Oc2sc(NC(=O)c3ccc([N+](=O)[O-])s3)nc2-c2ccc(C(C)(C)C)cc2)cc1 [Compound 5-95, N-(4-(4-(tert-butyl)phenyl)-5-(4-propoxyphenoxy)thiazol-2-yl)-5-nitrothiophene-2-carboxamide]",38%
9,"CCCCc1ccc(-c2nc(NC(=O)c3ccc([N+](=O)[O-])s3)sc2Oc2ccc(F)cc2)cc1 [Compound 5-94, N-(4-(4-butylphenyl)-5-(4-fluorophenoxy)thiazol-2-yl)-5-nitrothiophene-2-carboxamide]",32%
10,"O=C(Nc1nc(-c2cccc([N+](=O)[O-])c2)c(Oc2ccccc2)s1)c1ccc([N+](=O)[O-])s1 [Compound 5-3, 5-nitro-N-(4-(3-nitrophenyl)-5-phenoxythiazol-2-yl)thiophene-2-carboxamide]",82%
11,"CCOc1ccc(-c2nc(NC(=O)c3ccc([N+](=O)[O-])s3)sc2Oc2ccccc2)c(OCC)c1 [Compound 5-12, N-(4-(2,4-diethoxyphenyl)-5-phenoxythiazol-2-yl)-5-nitrothiophene-2-carboxamide]",46%
12,"CCCc1ccc(Oc2sc(NC(=O)c3ccc([N+](=O)[O-])s3)nc2-c2ccc(C(C)(C)C)cc2)cc1 [Compound 5-88, N-(4-(4-(tert-butyl)phenyl)-5-(4-propylphenoxy)thiazol-2-yl)-5-nitrothiophene-2-carboxamide]",36%
13,"CCCCOc1ccc(-c2nc(NC(=O)c3ccc([N+](=O)[O-])s3)sc2Oc2ccc(C(C)(C)CC)cc2)cc1 [Compound 5-98, N-(4-(4-butoxyphenyl)-5-(4-(tert-pentyl)phenoxy)thiazol-2-yl)-5-nitrothiophene-2-carboxamide]",50%
14,"CCCOc1ccc(-c2nc(NC(=O)c3ccc([N+](=O)[O-])s3)sc2Oc2cc(F)cc(F)c2)cc1 [Compound 5-50, N-(5-(3,5-difluorophenoxy)-4-(4-propoxyphenyl)thiazol-2-yl)-5-nitrothiophene-2-carboxamide]",42%
15,"COCCOc1ccc(-c2nc(NC(=O)c3ccc([N+](=O)[O-])s3)sc2Oc2cccnc2)cc1 [Compound 5-15, N-(4-(4-(2-methoxyethoxy)phenyl)-5-(pyridin-3-yloxy)thiazol-2-yl)-5-nitrothiophene-2-carboxamide]",54%
16,"CC(C)(C)c1ccc(Oc2sc(NC(=O)c3ccc([N+](=O)[O-])s3)nc2-c2ccc(C(C)(C)C)cc2)cc1 [Compound 5-96, N-(5-(4-(tert-butyl)phenoxy)-4-(4-(tert-butyl)phenyl)thiazol-2-yl)-5-nitrothiophene-2-carboxamide]",47%
17,"CCCc1ccc(-c2nc(NC(=O)c3ccc([N+](=O)[O-])s3)sc2Oc2ccccc2F)cc1 [Compound 5-78, N-(5-(2-fluorophenoxy)-4-(4-propylphenyl)thiazol-2-yl)-5-nitrothiophene-2-carboxamide]",33%
18,"CCCOc1ccc(-c2nc(NC(=O)c3ccc([N+](=O)[O-])s3)sc2Oc2ccc(C#N)cc2OC)cc1 [Compound 5-40, N-(5-(4-cyano-2-methoxyphenoxy)-4-(4-propoxyphenyl)thiazol-2-yl)-5-nitrothiophene-2-carboxamide]",46%
19,"CN(C)CC#Cc1ccc(-c2nc(NC(=O)c3ccc([N+](=O)[O-])s3)sc2Oc2ccccc2)s1 [Compound 5-46, N-(4-(5-(3-(dimethylamino)prop-1-yn-1-yl)thiophen-2-yl)-5-phenoxythiazol-2-yl)-5-nitrothiophene-2-carboxamide]",53%
20,"O=C(Nc1nc(-c2ccc(C(F)(F)F)cc2)c(Oc2ccccc2F)s1)c1ccc([N+](=O)[O-])s1 [Compound 5-83, N-(5-(2-fluorophenoxy)-4-(4-(trifluoromethyl)phenyl)thiazol-2-yl)-5-nitrothiophene-2-carboxamide]",36%

# Same assay, conditions: Homo sapiens, Table 6, ratio of number of tumor cells treated with 10 μM compound to non-treated cells
row,Compound,viability at 10 µM
1,"CC(C)(C)c1ccc(-c2nc(NC(=O)c3ccc([N+](=O)[O-])s3)sc2C(=O)N2CCOCC2)cc1 [Compound 6-49, N-(4-(4-(tert-butyl)phenyl)-5-(morpholine-4-carbonyl)thiazol-2-yl)-5-nitrothiophene-2-carboxamide]",57%
2,"CCOc1ccc(-c2nc(NC(=O)c3ccc([N+](=O)[O-])o3)sc2Cc2ccccc2)cc1 [Compound 6-33, N-(5-benzyl-4-(4-ethoxyphenyl)thiazol-2-yl)-5-nitrofuran-2-carboxamide]",27%
3,"O=C(Nc1nc(-c2ccc(Br)cc2)c(-c2ccccc2)s1)c1ccc([N+](=O)[O-])s1 [Compound 6-9, N-(4-(4-bromophenyl)-5-phenylthiazol-2-yl)-5-nitrothiophene-2-carboxamide]",71%
4,"COc1ccc(-c2sc(NC(=O)c3ccc([N+](=O)[O-])s3)nc2-c2ccc(C)cc2)cc1OC [Compound 6-4, N-(5-(3,4-dimethoxyphenyl)-4-(p-tolyl)thiazol-2-yl)-5-nitrothiophene-2-carboxamide]",64%
5,"O=C(Nc1nc(-c2ccc(Br)cc2)c(Br)s1)c1ccc([N+](=O)[O-])s1 [Compound 6-10, N-(5-bromo-4-(4-bromophenyl)thiazol-2-yl)-5-nitrothiophene-2-carboxamide]",50%
6,"CC(C)(C)c1ccc(-c2nc(NC(=O)c3ccc([N+](=O)[O-])s3)sc2C#N)cc1 [Compound 6-50, N-(4-(4-(tert-butyl)phenyl)-5-cyanothiazol-2-yl)-5-nitrothiophene-2-carboxamide]",53%
7,"Cc1ccc(-c2nc(NC(=O)c3ccc([N+](=O)[O-])o3)sc2-c2ccc(Br)cc2)cc1 [Compound 6-32, N-(5-(4-bromophenyl)-4-(p-tolyl)thiazol-2-yl)-5-nitrofuran-2-carboxamide]",27%
8,"CCCOc1ccc(-c2nc(NC(=O)c3ccc([N+](=O)[O-])s3)sc2C(=O)N2CCOCC2)cc1 [Compound 6-29, N-(5-(morpholine-4-carbonyl)-4-(4-propoxyphenyl)thiazol-2-yl)-5-nitrothiophene-2-carboxamide]",58%
